Measurements from patent US20230348376A1 (TEIJIN PHARMA LIMITED, priority 2020, published 2023).

Assays:
[1] = tested on: rat oligodendrocyte progenitor cells; test: Promotive activity of rat oligodendrocyte progenitor cell differentiation-1 (MBP gene expression, mRNA); assay type: cell-based; settings: Rattus norvegicus, Oligodendrocyte progenitor cell, 96 h, read-out: promotive activity at T3 base (MBP gene expression; DMSO 0%, T3 100%), 4 days, MBP/β actin mRNA
Method: Regarding vitamin D derivatives, which was confirmed to act on the vitamin D receptor (VDR) in Example 352, the promotive activity of oligodendrocyte progenitor cell (OPC) differentiation was evaluated by MBP gene expression (mRNA).
A forebrain obtained from SD rat (Charles River Japan, 1 day old) was crushed with 70 μm Cell Strainer (Falcon #352350), and a cell suspension was prepared by collecting the cells in oligodendrocyte progenitor cell separation medium (20% FBS/2 mM Glutamax (Gibco #35050-061)/i mM sodium pyruvate (Gibco #11360-070)/1% penicillin-streptomycin (Invitrogen #15140-122)/DMEM (Gibco #11960-044)). The cell suspension was seeded in a poly-D-lysine coated T75 flask (Thermo Fisher Scientific #132704) and cultured for about 2 weeks. After culturing, the flask was shaken using a rotary shaker ([…] #WB-101SRC) for about 1 hour (37° C., 100 rpm), and the supernatant was discarded to remove microglia. Subsequently, oligodendrocyte progenitor cell separation medium was added to the flask, and the mixture was similarly shaken for about 22 hours (37° C., 200 rpm), and the supernatant was collected to prepare oligodendrocyte progenitor cells.
The oligodendrocyte progenitor cell prepared was suspended in a differentiation medium (2% B27 (Thermo Fisher Scientific, Inc. #17504-044)/1% penicillin-streptomycin (Invitrogen Corporation #15140-122)/10 ng/mL CNTF (PeproTech Inc. #AF-450-13)/DMEM (Gibco #11960-044)), and seeded on a 96-well plate coated with poly-L-ornithine (FUJIFILM Wako Pure Chemical Corporation #163-27421) under the condition of 0.65×10^4 cells/well, and on a 384-well plate under the condition of 2×10^3 cells/well using an automatic dispensing system (LABCYTE #Echo555). […] After culturing, the cells seeded on the 96-well plate were subjected to immunostaining against MBP using following methods: fixation (4% paraformaldehyde solution, 30 minutes, room temperature), PBS washing, membrane permeation treatment (0.1% Trion X-100 (SIGMA #X100-100ML)/PBS, 3 minutes, room temperature), blocking (3% BSA (SIGMA #A9647-10G)/PBS, 1 hour, room temperature), primary antibody reaction (MBP antibody (abcam plc #ab40390), 2.5 μg/mL, 4° C., 24 hours), PBS washing, secondary antibody reaction (Alexa488 anti-rabbit IgG (Thermo Fisher Scientific, Inc. #A-11034), 5 μg/mL, room temperature, 1 hour), PBS washing, and nuclear staining (Hoechst33342 (DOJINDO #NU043), 10 μg/mL, room temperature, 5 minutes). Subsequently, images of each well were acquired using a fluorescence microscope (KEYENCE CORPORATION #BZ-X800), the number of MBP-positive cells and Hoechst 33342-positive cells were measured using an image analysis application (KEYENCE CORPORATION #BZ-X800 Analyzer), and then the ratio (the number of MBP-positive cells/the number of Hoechst33342-positive cells) was calculated. The cells seeded on the 384-well plate were subjected to real-time PCR using Cells-to-CT 1-Step TaqMan Kit (Thermo Fisher Scientific, Inc. #A25602) and QuantStudio 12K Flex Real-Time PCR System (Thermo Fisher Scientific, Inc. #4472380). The experiment was performed in accordance with the protocol attached to the kit. MBP (Thermo Fisher Scientific, Inc. #Assay ID Rn00690616_ml) and β actin (Thermo Fisher Scientific, Inc. #Assay ID Rn00667869_ml) were used as primers, and the expression levels of each were measured and the ratio (MBP/β actin) was calculated.

[2] = Evaluation of brain penetration in mice (blood and brain concentration at brain Cmax); assay type: in vivo, mouse; settings: 1 mg/kg single oral dose, C57BL/6J mice; for Concentration in blood (mean ± SD) at brain Cmax / Concentration in brain (mean ± SD) at brain Cmax: n=3; for Kp: male, C57BL/6J, mouse, brain/plasma, po, 1 mg/kg, read-out: Concentration in brain/in blood ratio at brain Cmax
Summary of the method: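 Male C57BL/6J mice (8 weeks, n=3) dosed orally once at 1 […] mg/kg; plasma and brain collected at 0.25, 0.5, 1, 2, 4 and 8 h. Compound extracted with acetonitrile from brain homogenate and plasma, quantified by LC/MS/MS.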

human VDR = target: T1, human VDR (Homo sapiens, UniProt P11473); test: Evaluation of VDR transcription activity in human osteoblasts (HOS cells), luciferase reporter; settings: Activity (EC50, VDR transcription activity), HOS cells transfected with human VDR, human RXRα and DR3 luciferase reporter; 21 hours
T1 sequence (P11473 1-427): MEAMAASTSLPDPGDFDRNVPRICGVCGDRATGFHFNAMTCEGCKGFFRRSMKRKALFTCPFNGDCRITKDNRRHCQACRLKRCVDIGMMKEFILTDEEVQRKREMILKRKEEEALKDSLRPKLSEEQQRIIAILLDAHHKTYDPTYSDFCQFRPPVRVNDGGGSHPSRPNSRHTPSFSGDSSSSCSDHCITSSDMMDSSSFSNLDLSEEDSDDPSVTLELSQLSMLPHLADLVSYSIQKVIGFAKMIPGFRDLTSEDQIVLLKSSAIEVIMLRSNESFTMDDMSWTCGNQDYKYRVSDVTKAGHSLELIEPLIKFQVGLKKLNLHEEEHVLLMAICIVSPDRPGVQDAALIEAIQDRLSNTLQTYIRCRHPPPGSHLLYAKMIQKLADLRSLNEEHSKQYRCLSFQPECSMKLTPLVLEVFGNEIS
T1 sequence (P19793 1-462 partner): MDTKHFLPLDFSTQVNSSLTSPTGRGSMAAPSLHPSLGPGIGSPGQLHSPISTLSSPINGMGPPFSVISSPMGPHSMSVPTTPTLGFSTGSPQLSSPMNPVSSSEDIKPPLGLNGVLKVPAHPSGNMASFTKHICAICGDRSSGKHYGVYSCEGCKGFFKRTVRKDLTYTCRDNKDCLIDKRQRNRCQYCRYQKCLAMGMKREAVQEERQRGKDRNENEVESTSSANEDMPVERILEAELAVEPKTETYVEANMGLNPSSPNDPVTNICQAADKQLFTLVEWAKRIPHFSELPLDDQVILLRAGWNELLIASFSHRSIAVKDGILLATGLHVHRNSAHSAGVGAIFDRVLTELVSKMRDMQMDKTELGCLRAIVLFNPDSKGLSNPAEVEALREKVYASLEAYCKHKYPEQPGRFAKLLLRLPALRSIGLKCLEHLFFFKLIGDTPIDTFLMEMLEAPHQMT

[3] = tested on: rat oligodendrocyte progenitor cells; test: Promotive activity of rat oligodendrocyte progenitor cell differentiation-2 (immunostaining of MBP); assay type: cell-based; settings: Test 1; vitamin D derivative 2 μM, T3 30 nM; 4 days
Summary of the method: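 Rat OPCs prepared by shaking in separation medium about 22 h at 37 °C, 200 rpm, and collecting the supernatant.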

SMILES	activation at 1 µM [1]	Concentration in blood (mean ± SD) at brain Cmax [2]	Concentration in brain (mean ± SD) at brain Cmax [2]	Kp [2]	EC50 (human VDR)	Mean (number of MBP-positive cells/number of Hoechst33342-positive cells) [3]
C=C1/C(=C\C=C2/CCC[C@]3(C)[C@@H]([C@H](C)CN4CC[C@H](C(F)F)C4)CC[C@@H]23)C[C@@H](O)[C@H](C)[C@@H]1O [Compound B021, (1R,2S,3 S,Z)-5-(2-((1R,3aS,7aR,E)-1-((S)-1-((S)-3-(difluoromethyl)pyrrolidin-1-yl)propan-2-yl)-7a-methyloctahydro-4H-inden-4-ylidene)ethylidene)-2-methyl-4-methylenecyclohexane-1,3-diol]	≥ 20%	320 ± 53 nM	237 ± 33 pmol/g	0.74	10 to 100 nM	
C=C1/C(=C\C=C2/CCC[C@]3(C)[C@@H]([C@H](C)CN4CC[C@@H](C(F)F)C4)CC[C@@H]23)C[C@@H](O)C[C@@H]1O [Compound B024, (1R,3 S,Z)-5-(2-((1R,3aS,7aR,E)-1-((S)-1-((R)-3-(difluoromethyl)pyrrolidin-1-yl)propan-2-yl)-7a-methyloctahydro-4H-inden-4-ylidene)ethylidene)-4-methylenecyclohexane-1,3-diol]	≥ 20%	431 ± 46 nM	652 ± 85 pmol/g	1.51		0.28
C=C1[C@H](O)CC(=C/C=C2\CCC[C@]3(C)[C@@H]([C@H](C)CN4CCO[C@@H](C(F)F)C4)CC[C@@H]23)C[C@H]1O [Compound D008, (1R,3R)-5-(2-((1R,3aS,7aR,E)-1-((S)-1-((R)-2-(difluoromethyl)morpholino)propan-2-yl)-7a-methyloctahydro-4H-inden-4-ylidene)ethylidene)-2-methylenecyclohexane-1,3-diol]	≥ 20%				1 to 10 nM	
C=C1[C@H](O)CC(=C/C=C2\CCC[C@]3(C)[C@@H]([C@H](C)CN4CCOC5(CCCC5)C4)CC[C@@H]23)C[C@H]1O [Compound D012, (1R,3R)-5-(2-((1R,3aS,7aR,E)-1-((S)-1-(6-oxa-9-azaspiro[4.5]decan-9-yl)propan-2-yl)-7a-methyloctahydro-4H-inden-4-ylidene)ethylidene)-2-methylenecyclohexane-1,3-diol]	≥ 20%				1 to 10 nM	
C=C1[C@H](O)CC(=C/C=C2\CCC[C@]3(C)[C@@H]([C@H](C)CN4C[C@@H](C)OC[C@H]4C)CC[C@@H]23)C[C@H]1O [Compound D017, (1R,3R)-5-(2-((1R,3aS,7aR,E)-1-((S)-1-((2R,5R)-2,5-dimethylmorpholino)propan-2-yl)-7a-methyloctahydro-4H-inden-4-ylidene)ethylidene)-2-methylenecyclohexane-1,3-diol]	≥ 20%				10 to 100 nM	
C=C1[C@H](O)CC(=C/C=C2\CCC[C@]3(C)[C@@H]([C@H](C)CCN4CCO[C@@H](C)C4)CC[C@@H]23)C[C@H]1O [Compound D025, (1R,3R)-5-(2-((1R,3aS,7aR,E)-7a-methyl-1-((R)-4-((S)-2-methylmorpholino)butan-2-yl)octahydro-4H-inden-4-ylidene)ethylidene)-2-methylenecyclohexane-1,3-diol]	≥ 20%				10 to 100 nM	
C=C1[C@H](O)CC(=C/C=C2\CCC[C@]3(C)[C@@H]([C@H](C)CCN4CCOC(C)(C)C4)CC[C@@H]23)C[C@H]1O [Compound D029, (1R,3R)-5-(2-((1R,3aS,7aR,E)-1-((R)-4-(2,2-dimethylmorpholino)butan-2-yl)-7a-methyloctahydro-4H-inden-4-ylidene)ethylidene)-2-methylenecyclohexane-1,3-diol]	≥ 20%				1 to 10 nM	
C[C@H](CCN1CCOC2(CC2)C1)[C@H]1CC[C@H]2/C(=C/C=C3C[C@@H](O)C[C@H](O)C3)CCC[C@]12C [Compound D030, (1R,3R)-5-(2-((1R,3aS,7aR,E)-1-((R)-4-(4-oxa-7-azaspiro[2.5]octan-7-yl)butan-2-yl)-7a-methyloctahydro-4H-inden-4-ylidene)ethylidene)cyclohexane-1,3-diol]	≥ 20%				1 to 10 nM	
C=C1[C@H](O)CC(=C/C=C2\CCC[C@]3(C)[C@@H]([C@H](C)CCN4CCOC[C@H]4C)CC[C@@H]23)C[C@H]1O [Compound D031, (1R,3R)-5-(2-((1R,3aS,7aR,E)-7a-methyl-1-((R)-4-((R)-3-methylmorpholino)butan-2-yl)octahydro-4H-inden-4-ylidene)ethylidene)-2-methylenecyclohexane-1,3-diol]	≥ 20%				1 to 10 nM	
C=C1[C@H](O)CC(=C/C=C2\CCC[C@]3(C)[C@@H]([C@H](C)CCN4CCOC[C@@H]4C)CC[C@@H]23)C[C@H]1O [Compound D032, (1R,3R)-5-(2-((1R,3aS,7aR,E)-7a-methyl-1-((R)-4-((S)-3-methylmorpholino)butan-2-yl)octahydro-4H-inden-4-ylidene)ethylidene)-2-methylenecyclohexane-1,3-diol]	≥ 20%				10 to 100 nM	
C[C@H](CCN1CCO[C@@H](C)C1)[C@H]1CC[C@H]2/C(=C/C=C3C[C@@H](O)C[C@H](O)C3)CCC[C@]12C [Compound D041, (1R,3R)-5-(2-((1R,3aS,7aR,E)-7a-methyl-1-((R)-4-((S)-2-methylmorpholino)butan-2-yl)octahydro-4H-inden-4-ylidene)ethylidene)cyclohexane-1,3-diol]	≥ 20%				100 to 1000 nM	
